Target: firefly luciferase (Photinus pyralis, UniProt P08659)
Assay: firefly luminescence reaction (luminescence activity as substrate)
Type: biochemical
Details: ATP, Mg ion, luminometer
Method: In a buffer solution (0.1 M Tris-HCl, pH 8), 10 mM 2-cyano-6-hydroxybenzothiazole, 1 mM L-cysteine, 10 mM COA-SH, 0.1 mg/mL of firefly luciferase and 100 units/mL of swine liver esterase were dissolved, 10 μL of the mixture was dispensed in a tube for measuring the luminescence, and a total volume was made 100 μL by adding the same buffer. An ATP—Mg solution (100 μL, 6 mM ATP—Na, 16 mM MgSO4) was injected thereto to initiate a luminescence reaction, and a luminescence amount was measured using a luminometer AB2200 supplied from ATTO Corporation.

Chain of firefly luciferase (P08659 whole entry): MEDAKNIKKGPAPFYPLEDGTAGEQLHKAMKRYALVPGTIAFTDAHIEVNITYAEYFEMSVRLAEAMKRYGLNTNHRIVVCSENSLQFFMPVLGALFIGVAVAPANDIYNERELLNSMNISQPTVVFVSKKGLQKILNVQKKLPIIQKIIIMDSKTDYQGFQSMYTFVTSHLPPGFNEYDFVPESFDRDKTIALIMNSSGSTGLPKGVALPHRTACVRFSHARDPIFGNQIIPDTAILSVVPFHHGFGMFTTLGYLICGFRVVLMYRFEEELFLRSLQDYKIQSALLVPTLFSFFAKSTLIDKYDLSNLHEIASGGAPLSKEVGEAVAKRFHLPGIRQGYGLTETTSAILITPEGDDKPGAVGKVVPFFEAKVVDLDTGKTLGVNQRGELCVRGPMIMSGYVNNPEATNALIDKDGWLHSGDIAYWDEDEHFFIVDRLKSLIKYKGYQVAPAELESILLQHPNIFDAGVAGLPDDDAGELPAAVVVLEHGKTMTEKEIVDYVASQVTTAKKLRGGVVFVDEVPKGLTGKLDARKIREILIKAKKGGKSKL

CC(C)(COP(=O)(O)OP(=O)(O)OCC1OC(n2cnc3c(N)ncnc32)C(O)C1OP(=O)(O)O)C(O)C(=O)NCCC(=O)NCCSC(=O)C1CSC(c2nc3ccc(O)cc3s2)=N1 (stereo not shown) [luciferyl-CoA]
luminescence activity (produces luminescence with luciferase): does not produce the luminescence

Reference: patent publication US20080003627A1, “SYSTEM FOR BIOSYNTHESIS OF FIREFLY LU[…] WITH NATURAL L-CYSTEINE OR DERIVATIVES THEREOF AND LU[…] SOLUTIONS CONTAINING THE SYSTEM” (NATIONAL INSTITUTE OF ADVANCED INDUSTRIAL SCIENCE AND …, priority 2004, published 2008)
